Experimental data reported in US4684620A, “Cyclic polypeptides having mu-receptor specificity” (Gibson-Stephens Neuropharmaceuticals, Inc., priority 1984, dated 1987).
Positions of bridges follow the written chain, without caps; N, C: chain ends. Non-standard residues stand in square brackets, D forms with d. Residues, ends and D or L forms follow the SMILES beside them. Asu = N[C@@H](CCCCCC(=O)O)C(=O)O; dPhg = N[C@@H](C(=O)O)c1ccccc1; Pen = CC(C)(S)[C@H](N)C(=O)O

Tests used:
[1] = target: T1, mu opioid receptor (Rattus norvegicus, UniProt P33535); assay: [3H]naloxone receptor binding to rat brain homogenates; details: for IC50: 1 nM [3H]naloxone
T1 construct: Adult Sprague-Dawly rats (150-200g) were killed by decapitation; The brain was rapidly removed and homogenized; from tissue; host or cells: rat brain membranes (Sprague-Dawley)
T1 sequence (P33535 whole entry): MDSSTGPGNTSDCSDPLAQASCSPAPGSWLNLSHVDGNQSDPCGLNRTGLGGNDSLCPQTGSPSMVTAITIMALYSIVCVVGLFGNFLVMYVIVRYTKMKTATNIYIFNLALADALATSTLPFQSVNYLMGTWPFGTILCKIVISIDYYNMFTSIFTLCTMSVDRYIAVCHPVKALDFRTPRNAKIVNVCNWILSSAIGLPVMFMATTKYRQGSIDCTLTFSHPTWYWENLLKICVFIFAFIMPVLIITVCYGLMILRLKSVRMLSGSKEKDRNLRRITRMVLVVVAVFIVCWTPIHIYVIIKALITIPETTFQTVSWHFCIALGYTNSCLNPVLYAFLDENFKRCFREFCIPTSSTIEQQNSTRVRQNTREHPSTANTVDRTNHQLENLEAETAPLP
Procedure: (§1) Adult Sprague-Dawly rats (150-200g) were killed by decapitation. The brain was rapidly removed and homogenized (10% wt/vol in 0.32 M sucrose in a glass homogenizer with a motor driven teflon pestle. The homogenate was then centrifuged at 43,000×g for 10 min and the resulting pellet was resuspended in 50 mM Trisma buffer (pH 7.4 at 25° C.) containing 5 mM MgCl2, 2 mg/ml BSA and 20 mg/ml of bacitracin, using a Polytron homogenizer (15 sec, setting 5). The centrifugation and resuspension step was repeated once.
(§2) For all the inhibition studies, rat brain plasma membranes (100 μl ) were incubated at 25° C. for 60 min in a total of 1.0 ml of 50 mM Trisma buffer containing 220,000 dpm ^125 I-CGP 23,996. See Czernik, A. J. and Petrack, G., J. Biol. Chem. 258,5525-5530 (1983) which is herein specifically incorporated by reference. 1 nM [^3 H-]naloxone (42.3 Ci/mmol, New England Nuclear) or 1 nM [^3 H]DADLE ([D-Ala^2, D-Ala^5 ]enkephalin), [^3 H-3'5'-Tyr]DADLE, 43 Ci/mmol, New England Nuclear, and at least nine concentrations of our synthetic analogues. All incubations were done in duplicate and each compound was tested at least five times. The concentration of test compounds was determined by quantitative amino acid analysis or from published molar extinction coefficients. […] The data were analyzed using nonlinear least squares regression analysis.

[2] = target: T2, δ-opiate receptors (Rattus norvegicus, UniProt P33533); assay: [3H]DADLE receptor binding to rat brain homogenates; details: for IC50: 1 nM [3H]DADLE
T2 construct: Adult Sprague-Dawly rats (150-200g) were killed by decapitation; The brain was rapidly removed and homogenized; from tissue; host or cells: rat brain membranes (Sprague-Dawley)
T2 sequence (P33533 whole entry): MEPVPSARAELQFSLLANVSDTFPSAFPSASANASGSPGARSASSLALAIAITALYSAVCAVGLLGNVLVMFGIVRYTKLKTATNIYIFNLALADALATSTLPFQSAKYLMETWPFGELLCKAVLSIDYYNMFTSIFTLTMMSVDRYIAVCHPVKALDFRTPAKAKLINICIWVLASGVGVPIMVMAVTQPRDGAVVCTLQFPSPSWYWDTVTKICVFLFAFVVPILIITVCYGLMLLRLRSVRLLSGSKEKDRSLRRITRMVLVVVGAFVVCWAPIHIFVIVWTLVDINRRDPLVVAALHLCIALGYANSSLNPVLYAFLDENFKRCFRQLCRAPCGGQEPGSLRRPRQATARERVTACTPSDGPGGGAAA
Procedure: as §1, §2

[3] = Partition coefficient, octanol-water; assay type: physicochemical; details: read-out: Partition Coefficient, Octanol-Water, log P
[4] = tested on: mu-type opiate receptors; assay: Guinea pig ileum (GPI) test, electrically stimulated contractions, antagonism of morphiceptin; details: morphiceptin alone
Procedure: (§3) The compounds of the present invention were tested for their ability to inhibit electrically stimulated muscle contractions in the guinea pig ileum (GPI) assay and in the mouse vas deferens (MVD) assay.
The tests in the guinea pig ileum were conducted as follows: strips of longitudinal muscle with adhering myenteric plexus were prepared from nonterminal ilea of guinea pigs and attached to a force transducer in a 60 ml isolated organ bath. Contractions were elicited by electrical stimulation with a Grass S44D stimulator.

[5] = target: T3, delta-type opiate receptors (Mus musculus, UniProt P32300); assay: Mouse vas deferens (MVD) test, electrically stimulated contractions, antagonism of DPDPE
T3 construct: from tissue; host or cells: mouse vas deferens
T3 sequence (P32300 whole entry): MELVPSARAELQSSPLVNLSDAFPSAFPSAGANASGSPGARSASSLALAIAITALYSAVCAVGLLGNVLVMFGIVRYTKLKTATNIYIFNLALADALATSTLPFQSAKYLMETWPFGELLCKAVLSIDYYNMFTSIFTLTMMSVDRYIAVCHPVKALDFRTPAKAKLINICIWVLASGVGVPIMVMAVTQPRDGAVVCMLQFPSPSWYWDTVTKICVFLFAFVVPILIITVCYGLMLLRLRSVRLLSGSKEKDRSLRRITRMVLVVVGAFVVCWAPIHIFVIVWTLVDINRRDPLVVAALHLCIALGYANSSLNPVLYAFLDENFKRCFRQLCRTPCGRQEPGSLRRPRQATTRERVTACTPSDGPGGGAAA
Procedure: as §3
The mouse vasa deferentia tests were conducted as follows: vas deferens of male mice were placed in a 60 ml tissue bath and attached to a force transducer. Contractions were induced by electrical stimulation. […] Percent inhibition was calculated.

Row | SMILES | IC50 [1] [µM] | IC50 [2] [µM] | logP [3] | also measured
1 | C[C@@H](O)[C@H](NC(=O)[C@@H]1CSSC(C)(C)[C@H](NC(=O)[C@H](N)Cc2ccccc2)C(=O)N[C@@H](Cc2ccc(O)cc2)C(=O)N[C@H](Cc2c[nH]c3ccccc23)C(=O)N[C@@H](CCCCN)C(=O)N[C@@H]([C@@H](C)O)C(=O)N1)C(=O)O | 0.471 | 2.56 | – | –
2 | C[C@@H](O)[C@H](NC(=O)[C@@H]1CSSC(C)(C)[C@H](NC(=O)[C@H](N)Cc2ccccc2)C(=O)N[C@@H](Cc2ccccc2)C(=O)N[C@H](Cc2c[nH]c3ccccc23)C(=O)N[C@@H](CCCCN)C(=O)N[C@@H]([C@@H](C)O)C(=O)N1)C(=O)O [drawing 32] | 61 | 38.1 | – | –
3 | C[C@@H](O)[C@H](NC(=O)[C@H]1NC(=O)[C@H]([C@@H](C)O)NC(=O)[C@H](CCCCN)NC(=O)[C@@H](Cc2c[nH]c3ccccc23)NC(=O)[C@H](Cc2ccc(O)cc2)NC(=O)[C@@H](NC(=O)[C@H](N)Cc2ccccc2)CSSC1(C)C)C(=O)O [drawing 26] | 0.293 | 3.76 | – | –
4 | C[C@@H](O)[C@H](NC(=O)[C@H]1NC(=O)[C@H]([C@@H](C)O)NC(=O)[C@H](CCCCN)NC(=O)[C@@H](Cc2c[nH]c3ccccc23)NC(=O)[C@H](Cc2ccccc2)NC(=O)[C@@H](NC(=O)[C@H](N)Cc2ccccc2)CSSC1(C)C)C(=O)O [III] | – | – | -0.71 | –
5 | C[C@@H](O)[C@H](NC(=O)[C@H]1NC(=O)[C@H]([C@@H](C)O)NC(=O)[C@H](CCCCN)NC(=O)[C@@H](Cc2c[nH]c3ccccc23)NC(=O)[C@H](Cc2ccc(O)cc2)NC(=O)[C@@H](NC(=O)[C@H](N)Cc2ccccc2)CSSC1(C)C)C(=O)O [Example 1] | – | – | 0.7 | –
6 | C[C@@H](O)[C@H](NC(=O)[C@@H]1CSSC(C)(C)[C@H](NC(=O)[C@H](N)Cc2ccccc2)C(=O)N[C@@H](Cc2ccccc2)C(=O)N[C@H](Cc2c[nH]c3ccccc23)C(=O)N[C@@H](CCCCN)C(=O)N[C@@H]([C@@H](C)O)C(=O)N1)C(=O)O [IV] | – | – | -0.22 | –
7 | C[C@@H](O)[C@H](NC(=O)[C@@H]1CSSC(C)(C)[C@H](NC(=O)[C@H](N)c2ccccc2)C(=O)N[C@@H](Cc2ccccc2)C(=O)N[C@H](Cc2c[nH]c3ccccc23)C(=O)N[C@@H](CCCCN)C(=O)N[C@@H]([C@@H](C)O)C(=O)N1)C(=O)O [drawing 28] (H-[dPhg][Pen]F[dW]KTCT-OH; disulfide 2-7) | 2.5 | 13.5 | – | –
8 | C[C@@H](O)[C@H](NC(=O)[C@H]1NC(=O)[C@H]([C@@H](C)O)NC(=O)[C@H](CCCCN)NC(=O)[C@@H](Cc2c[nH]c3ccccc23)NC(=O)[C@H](Cc2ccc(O)cc2)NC(=O)[C@@H](NC(=O)[C@H](N)Cc2ccccc2)CSSC1(C)C)C(N)=O [drawing 24] | 0.0035 | 0.952 | – | –
9 | C[C@@H](O)[C@H](NC(=O)[C@@H]1CSSC[C@H](NC(=O)[C@H](N)Cc2ccccc2)C(=O)N[C@@H](Cc2ccccc2)C(=O)N[C@H](Cc2c[nH]c3ccccc23)C(=O)N[C@@H](CCCCN)C(=O)N[C@@H]([C@@H](C)O)C(=O)N1)C(=O)O [drawing 31] | 2.58 | 3.14 | – | –
10 | C[C@@H](O)[C@H](NC(=O)[C@H]1NC(=O)[C@H]([C@@H](C)O)NC(=O)[C@H](CCCCN)NC(=O)[C@@H](Cc2c[nH]c3ccccc23)NC(=O)[C@H](Cc2ccc(O)cc2)NC(=O)[C@@H](NC(=O)[C@H](N)Cc2ccccc2)CSSC1(C)C)C(N)=O [Example VI] | – | – | -0.2 | –
11 | C[C@@H](O)[C@H](NC(=O)[C@@H]1CSSC[C@H](NC(=O)[C@H](N)Cc2ccccc2)C(=O)N[C@@H](Cc2ccccc2)C(=O)N[C@H](Cc2c[nH]c3ccccc23)C(=O)N[C@@H](CCCCN)C(=O)N[C@@H]([C@@H](C)O)C(=O)N1)C(=O)O [II] | – | – | -0.77 | –
12 | C[C@@H](O)[C@H](NC(=O)[C@H]1NC(=O)[C@H]([C@@H](C)O)NC(=O)[C@H](CCCCN)NC(=O)[C@@H](Cc2c[nH]c3ccccc23)NC(=O)[C@H](Cc2ccccc2)NC(=O)[C@@H](NC(=O)[C@H](N)Cc2ccccc2)CSSC1(C)C)C(N)=O [drawing 25] | 0.0099 | 1.1 | – | –
13 | C[C@H](N)C(=O)NCC(=O)N[C@H]1CSSC[C@@H](C(=O)O)NC(=O)[C@H](CO)NC(=O)[C@H]([C@@H](C)O)NC(=O)[C@H](Cc2ccccc2)NC(=O)[C@H]([C@@H](C)O)NC(=O)[C@H](CCCCN)NC(=O)[C@H](Cc2c[nH]c3ccccc23)NC(=O)[C@H](Cc2ccccc2)NC(=O)[C@H](Cc2ccccc2)NC(=O)[C@H](CC(N)=O)NC(=O)[C@H](CCCCN)NC1=O [SOMATOSTATIN, somatostatin, reference compound] | – | – | – | [3H]Naloxone nH [1]: 1.02; [3H]DADLE nH [2]: 1.09
14 | C[C@@H](O)[C@H](NC(=O)[C@H]1NC(=O)[C@H]([C@@H](C)O)NC(=O)[C@H](CCCCN)NC(=O)[C@@H](Cc2c[nH]c3ccccc23)NC(=O)[C@H](Cc2ccccc2)NC(=O)[C@@H](NC(=O)[C@H](N)Cc2ccccc2)CSSC1(C)C)C(N)=O [VII] | – | – | 0.36 | –
15 | NC(=O)[C@@H]1CCCN1C(=O)[C@H](Cc1ccccc1)NC(=O)[C@@H]1CCCN1C(=O)[C@@H](N)Cc1ccc(O)cc1 [Morphiceptin] (H-YPFP-NH2) | – | – | – | Percent inhibition of contractions ([4]; 300 nM): 28 ± 3%; Percent inhibition of contractions ([4]; 1000 nM): 58 ± 3%; Percent inhibition of contractions ([4]; 3000 nM): 73 ± 4%; Percent inhibition of contractions ([4]; 10000 nM): 73 ± 3%
16 | C[C@@H](O)[C@@H]1NC(=O)[C@H](Cc2ccc(O)cc2)NC(=O)[C@H]([C@@H](C)O)NC(=O)[C@H](CCCCN)NC(=O)[C@H](Cc2c[nH]c3ccccc23)NC(=O)[C@H](Cc2ccccc2)NC(=O)[C@H](Cc2ccccc2)NC(=O)[C@H](CC(N)=O)NC(=O)[C@H](CCCCN)NC(=O)CCCCC[C@@H](C(=O)O)NC(=O)[C@H](CO)NC1=O [CGP 23,996, des-Ala^1,Gly^2-desamino-Cys3-[Tyr^11]-dicarba^3,14-somatostatin, reference compound] (KNFFWKTYTS[Asu]-OH; lactam N-11) | > 100 | > 100 | – | –
17 | CC(=O)N[C@@H](Cc1ccccc1)C(=O)N[C@H](Cc1c[nH]c2ccccc12)C(=O)N[C@@H](CCCCN)C(=O)N[C@H](C(=O)O)[C@@H](C)O [AcPhe --D-TrpLysThr, reference compound] (Ac-F[dW]KT-OH) | 51.5 | 5.84 | – | –
18 | C[C@@H](O)[C@H](NC(=O)[C@H]1NC(=O)[C@H]([C@@H](C)O)NC(=O)[C@H](CCCCN)NC(=O)[C@@H](Cc2c[nH]c3ccccc23)NC(=O)[C@H](Cc2ccccc2)NC(=O)[C@@H](NC(=O)[C@H](N)Cc2ccccc2)C(C)(C)SSC1(C)C)C(=O)O [drawing 30] | 8.27 | 11.1 | – | –
19 | C[C@@H](O)[C@H](NC(=O)[C@H]1NC(=O)[C@H]([C@@H](C)O)NC(=O)[C@H](CCCCN)NC(=O)[C@@H](Cc2c[nH]c3ccccc23)NC(=O)[C@H](Cc2ccc(O)cc2)NC(=O)[C@@H](NC(=O)[C@H](N)Cc2ccccc2)CSSC1(C)C)C(N)=O [drawing 41] | – | – | – | Percent inhibition of contractions ([5]; DPDPE 1 nM plus 1000 nM analog): 13 ± 3%; Percent inhibition of contractions ([5]; DPDPE 3 nM plus 1000 nM analog): 28 ± 4%; Percent inhibition of contractions ([5]; DPDPE 10 nM plus 1000 nM analog): 48 ± 8%; Percent inhibition of contractions ([5]; DPDPE 30 nM plus 1000 nM analog): 73 ± 9%; Percent inhibition of contractions ([5]; DPDPE 100 nM plus 1000 nM analog): 91 ± 5%; Percent inhibition of contractions ([5]; DPDPE 300 nM plus 1000 nM analog): 97 ± 1%
20 | C[C@@H](O)[C@H](NC(=O)[C@H]1NC(=O)[C@H]([C@@H](C)O)NC(=O)[C@H](CCCCN)NC(=O)[C@@H](Cc2c[nH]c3ccccc23)NC(=O)[C@H](Cc2ccccc2)NC(=O)[C@@H](NC(=O)[C@H](N)Cc2ccccc2)C(C)(C)SSC1(C)C)C(=O)O [Example V] | – | – | 0 | –
21 | C[C@@H](O)[C@H](NC(=O)[C@H]1NC(=O)[C@H]([C@@H](C)O)NC(=O)[C@H](CCCCN)NC(=O)[C@@H](Cc2c[nH]c3ccccc23)NC(=O)[C@H](Cc2ccccc2)NC(=O)[C@@H](NC(=O)[C@H](N)Cc2ccccc2)CSSC1(C)C)C(=O)O [drawing 27] | 0.926 | 5.42 | – | –
22 | C[C@@H](O)[C@H](NC(=O)[C@@H]1CSSC(C)(C)[C@H](NC(=O)[C@H](N)c2ccccc2)C(=O)N[C@@H](Cc2ccccc2)C(=O)N[C@H](Cc2c[nH]c3ccccc23)C(=O)N[C@@H](CCCCN)C(=O)N[C@@H]([C@@H](C)O)C(=O)N1)C(=O)O [VIII] (H-[dPhg][Pen]F[dW]KTCT-OH; disulfide 2-7) | – | – | -0.57 | –
